Test results: PubChem BioAssay (NCI)
Where “and” joins values, the source holds several entries; their conditions need not be identical. Identical values can stand only once.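 Tested at 5 concentrations; 48 h exposure; 96-well plates; endpoints linearly interpolated, else capped at highest concentration. GI50: concentration for 50% inhibition of growth. TGI is the concentration that stops growth completely.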

Legend:
Assay in all cases: NCI anticancer screen, dose series, 48 h
[1] = system: ACHN renal
[2] = system: HOP-92 NSCLC
[3] = system: HT29 colon
[4] = system: IGROV1 ovarian
[5] = system: M14 melanoma
[6] = system: MOLT-4 leukemia
[7] = system: RXF 393 renal
[8] = system: SW-620 colon
[9] = system: TK-10 renal
[10] = system: UO-31 renal

SMILES	GI50 [1]	TGI [1]	GI50 [2]	TGI [2]	GI50 [3]	TGI [3]	GI50 [4]	TGI [4]	GI50 [5]	TGI [5]	GI50 [6]	TGI [6]	GI50 [7]	TGI [7]	GI50 [8]	TGI [8]	GI50 [9]	TGI [9]	GI50 [10]	TGI [10]
COc1nc2ccccc2cc1-c1nc2c(cnn2-c2ccc(Br)cc2)c(=O)[nH]1	34.5 nM	> 50 µM	127 nM	> 28.3 µM	19.1 nM	> 50 µM	0.0591 µM	> 50 µM	20.4 nM	2.33 µM	87.9 nM	> 50 µM	16.3 nM	0.245 µM	22.8 nM	> 50 µM	210 nM	8.8 µM	60.3 nM	> 50 µM
CCCCC(O)(c1ccc(Cl)cc1)C(CN1CCOCC1)c1ccc(Cl)cc1 (configuration not stated)	14400 nM	28.5 µM	10600 nM	23.6 µM	4140 nM	18.2 µM	8.68 µM	33 µM	13800 nM	33.4 µM	10700 nM	30.7 µM	8150 nM	22.8 µM	11500 nM	25.3 µM	16600 nM	31.2 µM	12200 nM	26.2 µM
C=C1C(=O)O[C@@H]2/C=C(\C)CC/C=C(/COC(C)=O)C[C@@H](OC(C)=O)[C@@H]12		17 µM		21.1 µM		> 40.9 µM		28.1 µM		27.1 µM		16.9 µM		24.2 µM		15.4 µM		23.2 µM		22.3 µM
COC(=O)C1=CNC=C(C(=O)OC)C1C1=CC(=O)C(C)=CC1=O	2520 nM	8.18 µM	4650 nM	15.6 µM	29900 nM	> 100 µM	14.3 µM	27.5 µM	15200 nM	29.1 µM	2160 nM	5.9 µM	31100 nM	> 54.2 µM	8430 nM	22.2 µM	6200 nM	15.5 µM	12000 nM	24.5 µM
CCCCCCCC/C=C/CCCCCCCC(=O)OC[C@H]1O[C@@H](n2ccc(N)nc2=O)C(F)(F)[C@@H]1O	< 10 nM	6.07 µM	141 nM	34.7 µM	97 nM	> 100 µM	19 µM	> 100 µM	< 11.5 nM	0.0273 µM	35.2 nM	5.02 µM	67.5 nM	> 49.2 µM	75.9 nM	> 100 µM	2380 nM	> 100 µM	< 13.6 nM	0.125 µM
COc1cc(-c2ccc3c(c2)NC(=O)/C3=C\c2ccc[nH]2)ccc1O	41.7 nM	> 50 µM	> 24700 nM	> 50 µM	1050 nM	> 50 µM	0.0697 µM	> 50 µM	17.6 nM	> 50 µM	32 nM	> 22.1 µM	23.4 nM	1.66 µM	18.8 nM	> 50 µM	1720 nM	> 50 µM	35.4 nM	> 50 µM
N#CC(NNC(=O)Cc1ccccc1)c1c(O)ccc2ccccc12 (configuration not stated)		20.2 µM		41.3 µM		62.1 µM		> 76.8 µM		21.1 µM		> 48.3 µM		41.9 µM		> 100 µM		80.4 µM		11.2 µM
NCC1Nc2ccccc2[C@@H](O)C1O (some centres not stated)		> 100 µM		> 100 µM		> 100 µM		> 100 µM		> 100 µM		> 100 µM		> 100 µM		> 100 µM		> 100 µM		> 100 µM
CN1C/C=C\CCOc2cccc(c2)-c2ccnc(n2)Nc2cccc(c2)C1	33.2 nM	1.49 µM	34.9 nM	0.227 µM	49.7 nM	0.976 µM	0.0487 µM	1.31 µM	64.4 nM	0.346 µM	37.1 nM	0.874 µM	22.1 nM	0.0501 µM	43.9 nM	4.49 µM	76.2 nM	0.88 µM	32.4 nM	0.46 µM
CN(C)C(=O)c1cc2cnc(Nc3ccc(-c4csc5c(=S)cc(N6CCOCC6)oc45)cc3)nc2n1C1CCCC1	377 nM	> 50 µM	115 nM		515 nM	> 50 µM	0.509 µM	> 50 µM	838 nM	> 50 µM	244 nM	> 50 µM	139 nM	0.495 µM	604 nM	> 50 µM	987 nM	> 50 µM	227 nM	1.54 µM
CCOC(=O)[C@@H](N)CCC(=O)N[C@@H](CSCc1ccccc1)C(=O)N[C@@H](C(=O)OCC)c1ccccc1	18600 nM	34.8 µM	10900 nM	24.2 µM	16600 nM	33.6 µM	19.3 µM	36.4 µM	19000 nM	37.2 µM	24800 nM	> 71.4 µM	14100 nM	27.5 µM	20700 nM	49.2 µM	16600 nM	32.7 µM	34500 nM	> 59.5 µM
NS(=O)(=O)c1ccc(N=Nc2c(O)[nH]c3ccc(-c4cnco4)cc23)cc1	17700 nM	> 25 µM	> 25000 nM	> 25 µM	> 25000 nM	> 25 µM	> 25 µM	> 25 µM	> 25000 nM	> 25 µM	> 25000 nM	> 25 µM	> 19600 nM	> 25 µM	9910 nM	> 25 µM	> 25000 nM	> 25 µM	> 25000 nM	> 25 µM
O=C(NC1=CC(=O)c2ccccc2C1=O)c1ccccc1	1010 nM	2.27 µM	572 nM	2.6 µM	2330 nM	4.9 µM	1.26 µM	2.85 µM	874 nM	4.4 µM	2040 nM	6.22 µM	1400 nM	3.12 µM	1150 nM	2.82 µM	2710 nM	5.38 µM	481 nM	2.18 µM
O=C(O)C1OC(n2cc(F)c(=O)[nH]c2=O)CC1O (configuration not stated)		> 59.1 µM		> 51.4 µM		> 100 µM		> 100 µM		> 100 µM		> 56.2 µM		> 100 µM		> 100 µM		> 100 µM		> 100 µM
CN1CCN(CCCOc2ccc3nc(Nc4ccc(Cl)c(C(F)(F)F)c4)ccc3c2)CC1	12500 nM	32 µM	5460 nM	18.8 µM	2670 nM	8.38 µM	13.2 µM	30.1 µM	12700 nM	26.1 µM	8200 nM	24.3 µM	12700 nM	28 µM	8970 nM	22.1 µM	18300 nM	32.8 µM	14500 nM	29.4 µM
COc1cccc2c1C(=O)c1c(O)c3c(c(O)c1C2=O)C[C@@](O)(C(C)=O)C[C@@H]3OC1OC(C)C(O)C(N)C1Br (some centres not stated)		0.174 µM and 0.139 µM	60.2 nM	0.422 µM and 0.474 µM		0.573 µM		1.41 µM and 9.05 µM	53.5 nM	0.257 µM and 0.669 µM		0.0266 µM		0.661 µM and 0.864 µM	26.6 nM	0.766 µM and 1.46 µM		0.407 µM	134 nM	0.329 µM and 0.59 µM
COc1ccc(Nc2c3ccccc3nc3occc23)cc1	9950 nM	> 80.6 µM	7360 nM	31.5 µM	1490 nM		7.66 µM	> 100 µM	2140 nM	> 43.1 µM	1550 nM	> 33 µM	1850 nM	17.7 µM	2900 nM	39.5 µM	1610 nM	20.6 µM	22500 nM	> 100 µM
CS/C(N)=N\NC(=O)CCC(=O)Nc1ccccc1C(F)(F)F		> 100 µM		> 100 µM		> 100 µM		> 100 µM		> 100 µM		> 100 µM		> 100 µM		> 100 µM		> 100 µM		> 100 µM
O=C1OC(c2ccccc2)=N/C1=C\c1cccc2ccccc12		> 100 µM		> 100 µM		> 100 µM		> 100 µM		> 100 µM		> 100 µM		> 100 µM		> 100 µM		> 100 µM		> 100 µM
CC(C)n1nc(-c2cc3cc(O)ccc3[nH]2)c2c(N)ncnc21	224 nM	5.18 µM	34.4 nM	0.483 µM	465 nM	28.7 µM	0.0945 µM	0.774 µM	151 nM	1.8 µM	315 nM	6.2 µM	121 nM	0.661 µM	1310 nM	14.2 µM	178 nM	2.31 µM	46.4 nM	0.726 µM
CCOc1ccccc1NC(=O)CC(C(=O)OC)C(=O)C(=O)OC (configuration not stated)		> 100 µM		> 100 µM		> 100 µM		> 100 µM		> 100 µM		> 100 µM		> 100 µM		> 100 µM		> 100 µM		> 100 µM
CC(C)C(Nc1c2ccccc2nc2ccccc12)C(=O)O (configuration not stated)		> 100 µM		> 100 µM		> 100 µM		> 100 µM		> 100 µM		> 100 µM		> 100 µM		> 100 µM		> 100 µM		> 100 µM
